Data from paper PMC8048867 (Chemmedchem, 2020).

What was measured:
[1] = biological target: T1, recombinant human meprin α (Homo sapiens, UniProt Q16819); assay: meprin α inhibition, quenched fluorogenic peptide substrate assay; type: biochemical; details: for SF: selectivity factor (K i app meprin β/K i app meprin α): meprin α over meprin β
T1 sequence (Q16819 66-746): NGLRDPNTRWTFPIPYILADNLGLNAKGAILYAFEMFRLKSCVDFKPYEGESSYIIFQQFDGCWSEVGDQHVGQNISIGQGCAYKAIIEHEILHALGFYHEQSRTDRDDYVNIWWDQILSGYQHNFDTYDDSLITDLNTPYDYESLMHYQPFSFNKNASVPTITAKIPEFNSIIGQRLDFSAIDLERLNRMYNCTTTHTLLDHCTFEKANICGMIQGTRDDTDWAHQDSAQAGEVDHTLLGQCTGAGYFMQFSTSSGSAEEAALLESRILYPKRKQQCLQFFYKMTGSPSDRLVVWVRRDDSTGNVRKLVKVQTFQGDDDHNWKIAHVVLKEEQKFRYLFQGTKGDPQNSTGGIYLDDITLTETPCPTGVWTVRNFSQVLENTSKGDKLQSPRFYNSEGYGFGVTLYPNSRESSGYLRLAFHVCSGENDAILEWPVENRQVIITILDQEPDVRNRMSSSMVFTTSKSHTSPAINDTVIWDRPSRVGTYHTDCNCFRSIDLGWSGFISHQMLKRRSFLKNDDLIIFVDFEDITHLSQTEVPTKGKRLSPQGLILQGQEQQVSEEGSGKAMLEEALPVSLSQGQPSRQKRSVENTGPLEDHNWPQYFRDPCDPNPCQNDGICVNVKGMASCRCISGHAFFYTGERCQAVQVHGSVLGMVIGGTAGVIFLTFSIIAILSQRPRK

[2] = biological target: T2, recombinant human meprin β (Homo sapiens, UniProt Q16820); assay: meprin β inhibition, quenched fluorogenic peptide substrate assay; type: biochemical
T2 sequence (Q16820 62-701): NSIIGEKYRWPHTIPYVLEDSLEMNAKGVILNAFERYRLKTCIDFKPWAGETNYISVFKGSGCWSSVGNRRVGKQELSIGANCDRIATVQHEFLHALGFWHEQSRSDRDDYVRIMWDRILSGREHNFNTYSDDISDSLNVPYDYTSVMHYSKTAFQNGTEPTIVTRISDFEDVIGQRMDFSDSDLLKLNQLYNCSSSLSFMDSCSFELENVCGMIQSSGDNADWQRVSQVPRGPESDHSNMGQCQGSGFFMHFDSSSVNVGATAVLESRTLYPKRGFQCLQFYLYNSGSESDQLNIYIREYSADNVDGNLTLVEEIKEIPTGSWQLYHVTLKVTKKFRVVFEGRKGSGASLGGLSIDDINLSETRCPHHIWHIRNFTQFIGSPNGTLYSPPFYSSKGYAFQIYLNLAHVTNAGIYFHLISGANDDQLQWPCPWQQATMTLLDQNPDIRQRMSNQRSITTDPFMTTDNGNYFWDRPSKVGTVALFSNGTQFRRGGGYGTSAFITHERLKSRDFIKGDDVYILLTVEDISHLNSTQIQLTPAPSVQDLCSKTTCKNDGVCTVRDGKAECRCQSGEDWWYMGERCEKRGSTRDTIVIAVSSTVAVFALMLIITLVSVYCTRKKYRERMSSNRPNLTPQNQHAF

[3] = biological target: T3, MMP2 (Homo sapiens, UniProt P08253); assay: off-target proteinase inhibition MMP2; type: biochemical; details: read-out: Relative enzyme activity MMP2
T3 sequence (P08253 110-660): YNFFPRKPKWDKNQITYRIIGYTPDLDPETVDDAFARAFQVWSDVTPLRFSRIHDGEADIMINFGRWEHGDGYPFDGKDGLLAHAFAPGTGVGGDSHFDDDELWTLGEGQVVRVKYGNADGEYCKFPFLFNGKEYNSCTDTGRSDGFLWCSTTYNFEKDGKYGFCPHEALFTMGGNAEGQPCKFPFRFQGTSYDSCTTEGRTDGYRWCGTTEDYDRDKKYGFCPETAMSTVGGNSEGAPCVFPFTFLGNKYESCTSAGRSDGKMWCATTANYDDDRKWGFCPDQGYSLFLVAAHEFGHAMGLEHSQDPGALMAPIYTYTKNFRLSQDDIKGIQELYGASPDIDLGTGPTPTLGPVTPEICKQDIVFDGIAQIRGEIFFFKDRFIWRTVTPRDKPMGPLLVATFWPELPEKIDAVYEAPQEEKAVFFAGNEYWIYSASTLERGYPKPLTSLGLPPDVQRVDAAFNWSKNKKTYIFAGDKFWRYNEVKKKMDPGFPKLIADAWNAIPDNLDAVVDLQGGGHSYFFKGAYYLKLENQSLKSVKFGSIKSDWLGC

[4] = biological target: MMP9 (Homo sapiens, UniProt P14780); assay: off-target proteinase inhibition MMP9; type: biochemical; details: read-out: Relative enzyme activity MMP9
[5] = biological target: MMP13 (Homo sapiens, UniProt P45452); assay: off-target proteinase inhibition MMP13; type: biochemical; details: read-out: Relative enzyme activity MMP13
[6] = biological target: T4, ADAM10 (Homo sapiens, UniProt O14672); assay: off-target proteinase inhibition ADAM10; type: biochemical; details: read-out: Relative enzyme activity ADAM10
T4 sequence (O14672 214-748): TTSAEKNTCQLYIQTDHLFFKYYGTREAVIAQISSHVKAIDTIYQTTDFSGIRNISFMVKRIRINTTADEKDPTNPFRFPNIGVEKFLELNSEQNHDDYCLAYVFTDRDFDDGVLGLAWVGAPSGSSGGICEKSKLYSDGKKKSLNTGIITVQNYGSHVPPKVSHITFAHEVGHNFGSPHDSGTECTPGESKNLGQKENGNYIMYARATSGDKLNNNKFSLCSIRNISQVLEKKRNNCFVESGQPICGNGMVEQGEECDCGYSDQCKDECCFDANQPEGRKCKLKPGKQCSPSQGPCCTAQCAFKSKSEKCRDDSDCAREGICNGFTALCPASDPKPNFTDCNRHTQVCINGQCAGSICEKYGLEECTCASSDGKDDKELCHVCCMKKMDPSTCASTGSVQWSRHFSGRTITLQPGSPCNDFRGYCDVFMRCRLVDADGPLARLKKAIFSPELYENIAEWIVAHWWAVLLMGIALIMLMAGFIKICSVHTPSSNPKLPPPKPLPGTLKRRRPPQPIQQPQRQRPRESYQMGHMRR

[7] = biological target: ADAM17 (Homo sapiens, UniProt P78536); assay: off-target proteinase inhibition ADAM17; type: biochemical; details: read-out: Relative enzyme activity ADAM17
[8] = biological target: T5, mouse ovastacin (Mus musculus, UniProt Q6HA09); assay: ovastacin inhibition, fluorogenic enzyme activity assay
T5 sequence (Q6HA09 86-435 limits assumed): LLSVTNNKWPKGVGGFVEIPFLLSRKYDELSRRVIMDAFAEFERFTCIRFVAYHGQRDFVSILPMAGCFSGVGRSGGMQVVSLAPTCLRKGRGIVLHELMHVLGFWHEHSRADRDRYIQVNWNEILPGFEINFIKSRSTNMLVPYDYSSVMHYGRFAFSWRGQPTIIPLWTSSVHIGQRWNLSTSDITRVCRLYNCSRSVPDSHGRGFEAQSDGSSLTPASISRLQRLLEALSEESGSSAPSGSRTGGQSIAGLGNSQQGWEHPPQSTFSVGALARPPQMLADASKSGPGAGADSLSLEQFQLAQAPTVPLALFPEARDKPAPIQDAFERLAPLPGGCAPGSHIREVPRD

Chain of MMP9 (P14780 107-707 limits assumed): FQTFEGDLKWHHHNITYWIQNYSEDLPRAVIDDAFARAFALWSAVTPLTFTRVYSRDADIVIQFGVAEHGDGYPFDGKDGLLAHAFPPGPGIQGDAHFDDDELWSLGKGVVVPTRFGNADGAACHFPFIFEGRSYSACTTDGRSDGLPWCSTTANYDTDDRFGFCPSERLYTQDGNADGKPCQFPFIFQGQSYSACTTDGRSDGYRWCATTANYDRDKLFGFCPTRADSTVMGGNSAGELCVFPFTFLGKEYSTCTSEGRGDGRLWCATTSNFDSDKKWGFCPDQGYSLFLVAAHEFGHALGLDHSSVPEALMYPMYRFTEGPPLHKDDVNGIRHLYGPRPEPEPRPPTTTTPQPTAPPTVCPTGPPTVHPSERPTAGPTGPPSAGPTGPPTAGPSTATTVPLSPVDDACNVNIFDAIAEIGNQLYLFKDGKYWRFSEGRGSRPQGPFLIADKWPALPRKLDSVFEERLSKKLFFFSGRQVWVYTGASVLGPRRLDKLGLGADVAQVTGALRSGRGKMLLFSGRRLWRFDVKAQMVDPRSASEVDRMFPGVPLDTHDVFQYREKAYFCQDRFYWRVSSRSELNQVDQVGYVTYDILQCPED
Chain of ADAM17 (P78536 215-824): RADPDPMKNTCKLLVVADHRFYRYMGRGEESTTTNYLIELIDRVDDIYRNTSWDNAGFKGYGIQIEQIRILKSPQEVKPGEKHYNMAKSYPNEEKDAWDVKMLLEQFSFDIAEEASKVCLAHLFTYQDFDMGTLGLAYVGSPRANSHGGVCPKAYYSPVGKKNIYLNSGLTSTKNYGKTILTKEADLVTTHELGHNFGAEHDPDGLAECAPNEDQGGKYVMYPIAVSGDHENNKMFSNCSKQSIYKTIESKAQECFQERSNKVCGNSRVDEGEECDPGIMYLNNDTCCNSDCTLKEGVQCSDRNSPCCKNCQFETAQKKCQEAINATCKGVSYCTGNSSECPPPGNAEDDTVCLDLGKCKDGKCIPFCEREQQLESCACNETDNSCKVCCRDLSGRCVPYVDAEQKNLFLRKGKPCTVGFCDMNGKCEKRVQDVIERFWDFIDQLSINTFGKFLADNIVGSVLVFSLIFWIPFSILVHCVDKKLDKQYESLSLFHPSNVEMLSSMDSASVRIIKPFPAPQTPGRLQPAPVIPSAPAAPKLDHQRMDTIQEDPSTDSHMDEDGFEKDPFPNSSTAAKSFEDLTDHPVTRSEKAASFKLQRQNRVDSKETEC

| SMILES | Ki [1] [nM] | SF: selectivity factor (K i app meprin β/K i app meprin α) [1] | Ki [2] [nM] | Ki [8] [nM] | SF Meprin α: selectivity factor (K i app ovastacin/K i app meprin α) [8] | SF Meprin β: selectivity factor (K i app ovastacin/K i app meprin β) [8] | further results |
| --- | --- | --- | --- | --- | --- | --- | --- |
| O=C(Cn1c(-c2ccccc2)ccc1-c1ccccc1)NO [2 a, 2‐(2,5‐Diphenylpyrrol‐1‐yl)ethanehydroxamic acid] | 20 | 216 | 4310 |  |  |  | fold improvement in potency against meprin α compared to amine 1 d ([1]; compared to 1 d): ~400 fold; remaining activity at 10 µM [3]: 83%; remaining activity at 200 µM [3]: 1%; remaining activity at 10 µM [4]: 92%; remaining activity at 200 µM [4]: 1%; remaining activity at 10 µM [5]: 79%; remaining activity at 200 µM [5]: 5%; remaining activity at 10 µM [6]: 82%; remaining activity at 200 µM [6]: 29%; remaining activity at 10 µM [7]: 82%; remaining activity at 200 µM [7]: 25% |
| O=C(CCn1c(-c2ccccc2)ccc1-c1ccccc1)NO [2 b, 3‐(2,5‐Diphenylpyrrol‐1‐yl)propanehydroxamic acid] | 736 | 20 | 15000 |  |  |  |  |
| O=C(Cc1c(-c2ccccc2)n[nH]c1-c1ccccc1)NO [2 e, 2‐(3,5‐Diphenyl‐1H‐pyrazol‐4‐yl)ethanehydroxamic acid] | 3 | 66 | 199 | 196 | 65 | 1 | remaining activity at 10 µM [3]: 104%; remaining activity at 200 µM [3]: 61%; remaining activity at 10 µM [4]: 81%; remaining activity at 200 µM [4]: 27%; remaining activity at 10 µM [5]: 75%; remaining activity at 200 µM [5]: 67%; remaining activity at 10 µM [6]: 73%; remaining activity at 200 µM [6]: 23%; remaining activity at 10 µM [7]: 61%; remaining activity at 200 µM [7]: 7% |
| O=C(CCn1c(-c2ccccc2)nnc1-c1ccccc1)NO [2 h, 3‐(3,5‐Diphenyl‐1,2,4‐triazol‐4‐yl)propanehydroxamic acid] | 306 | 138 | 42300 | 31800 | 104 | 0.8 |  |
| O=C(Cc1c(-c2ccccc2)ncn1-c1ccccc1)NO [2 i, 2‐(3,5‐Diphenylimidazol‐4‐yl)ethanehydroxamic acid] | 2 | 222 | 443 |  |  |  |  |
| O=C(Cc1c(-c2ccccc2)nnn1-c1ccccc1)NO [2 j, 2‐(3,5‐Diphenyl‐1,2,3‐triazol‐4‐yl)ethanehydroxamic acid] | 9 | 161 | 1450 |  |  |  |  |
| O=C(Cn1nc(-c2ccccc2)cc1-c1ccccc1)NO [3 a, 2‐(3,5‐Diphenylpyrazol‐1‐yl)ethanehydroxamic acid] | 256 | 41 | 10400 | 1050 | 4 | 0.1 |  |
| O=C(CCn1nc(-c2ccccc2)cc1-c1ccccc1)NO [3 b, 3‐(3,5‐Diphenylpyrazol‐1‐yl)propanehydroxamic acid] | 406 | 38 | 15400 | 1100 | 3 | 0.1 |  |
| O=C(CCn1c(-c2ccccc2)cc2ccccc21)NO [4 b, 3‐(2‐Phenylindol‐1‐yl)propanehydroxamic acid] | 414 | 41 | 17000 | 1300 | 3.1 | 0.1 |  |
| O=C(CCn1c(-c2ccccc2)nc2ccccc21)NO [4 d, 3‐(2‐Phenylbenzimidazol‐1‐yl)propanehydroxamic acid] | 1030 | 27 | 27900 | 9800 | 9.5 | 0.4 |  |
| O=C(Cc1c(-c2ccccc2)[nH]c2ccccc12)NO [4 e, 2‐(2‐Phenyl‐1H‐indol‐3‐yl)ethanehydroxamic acid] | 82 | 14 | 1180 |  |  |  |  |
| O=C(Cn1c(-c2ccccc2)nc2cccnc21)NO [4 f, 2‐(2‐Phenylimidazo[4,5‐b]pyridin‐3‐yl)ethanehydroxamic acid] | 262 | 17 | 4560 |  |  |  |  |
| O=C(Cn1c(-c2ccccc2)nc2ncccc21)NO [4 g, 2‐(2‐Phenylimidazo[4,5‐b]pyridin‐1‐yl)ethane‐hydroxamic acid] | 1480 | 3 | 4170 |  |  |  |  |
| O=C(Cc1c2ccccc2nn1-c1ccccc1)NO [4 h, 2‐(2‐Phenylindazol‐3‐yl)ethanehydroxamic acid] | 273 | 12 | 3360 |  |  |  |  |
| CCCCC[C@H](CC(=O)NO)C(=O)N[C@H](C(=O)N1CCC[C@H]1CO)C(C)C [Actinonin, reference compound] | 8 | 27 | 219 |  |  |  |  |
